{
  "source": "paper PMC5344293",
  "about": "“A phase 1 dose-escalation and expansion study of binimetinib (MEK162), a potent and selective oral MEK1/2 inhibitor” (British Journal of Cancer, 2017)",
  "key": {"pERK": {"system": "pERK", "assay": "Skin punch biopsy pERK immunohistochemistry", "format": "in vivo, human", "conditions": "cycle 1 day 15", "experimental": "Skin punch biopsies (with hair follicles, if feasible) were obtained from patients in the dose-escalation phase and colorectal cancer expansion phase cohorts pre-dose at baseline and post dose within 7 days of cycle 1 day 15 for measurement of Ki67 and pERK expression. Ki67 and pERK expression were determined by immunohistochemistry using a Ki67 rabbit monoclonal antibody (clone 30-9; Ventana Medical Systems, Inc., Tucson, AZ, USA) and a pERK rabbit monoclonal antibody (Thr202/Tyr204, clone 20G11; Cell Signaling Technology, Inc., Danvers, MA), respectively, visualised with DAB and counterstained with haematoxylin. Ki67 was expressed as percentage of tumour cells with positive stain; pERK was expressed as an H-score."}, "[1]": {"assay": "Phase 1 dose escalation: DLTs and MTD", "format": "in vivo", "experimental": "This multicentre, open-label, phase 1 study comprised two phases: a dose-escalation phase and an expansion phase. In the dose-escalation phase, a modified 3+3 design was employed to determine the MTD of binimetinib administered orally twice daily (BID) in a 21-day treatment cycles. A single dose of binimetinib was administered on day 1 and then BID continuously beginning on day 2 of cycle 1. A starting dose of 30 mg BID was utilised for the dose-escalation phase. The dose was escalated in cohorts of at least three evaluable patients at 45 mg BID, 60 mg BID, and 80 mg BID until MTD was determined. Patients in the expansion phase received continuous BID treatment with binimetinib beginning on day 1 of cycle 1 at the MTD determined in the dose-escalation phase. Patients were instructed to take BID doses 12±2 h apart with water, irrespective of food.\nDose-limiting toxicities (DLTs) were any adverse event (AE) not clearly attributable to the patient's disease, including haematologic toxicities of grade 4 neutropenia for ⩾5 days, febrile neutropenia, grade 4 thrombocytopenia, and grade 3 thrombocytopenia with bleeding. […]"}, "advanced solid tumours": {"system": "advanced solid tumours", "assay": "Tumour response, RECIST version 1.1", "format": "in vivo, human", "experimental": "Efficacy was assessed through radiologic scans and clinical measurements of disease sites (if applicable), and evaluation of serologic tumour markers in patient blood samples as appropriate for tumour type. Tumour assessments were performed within 21 days before the first dose and then every 6 weeks starting at the end of cycle 2. Tumour response was evaluated by the investigator using Response Evaluation Criteria in Solid Tumours (RECIST) version 1.1 criteria. Tumour marker levels were incorporated into the overall response assessment per RECIST.\nAll patients who received ⩾1 dose of binimetinib were included in the safety analysis. Patients in the safety analysis who had ⩾1 measurable lesion at baseline and at least 1 post-baseline disease assessment were evaluable for efficacy. Kaplan–Meier estimates of progression-free survival (PFS) and overall survival (OS) were performed for patients in the expansion phase ([Kaplan and Meier, 1958]) using SAS Version 9.2 (SAS Institute Inc., Cary, NC, USA)."}},
  "note": "Values joined by “and” are separate entries in the source; they are usually repeats but may differ in a detail not shown here. Equal entries are not always repeated.",
  "data": [
    {"smiles": "Cn1cnc2c(F)c(Nc3ccc(Br)cc3F)c(C(=O)NOCCO)cc21", "note": "[binimetinib]", "values": [
      {"measurement": "Skin expression of pERK, median (range) percent of baseline", "setting": "pERK; 30 mg BID (n=4)", "value": "88 (50–100) percent of baseline"},
      {"measurement": "Skin expression of pERK, median (range) percent of baseline", "setting": "pERK; 45 mg BID (n=22)", "value": "66 (38–189) percent of baseline"},
      {"measurement": "Skin expression of pERK, median (range) percent of baseline", "setting": "pERK; 60 mg BID (n=7)", "value": "59 (29–72) percent of baseline"},
      {"measurement": "Skin expression of pERK, median (range) percent of baseline", "setting": "pERK; Total (N=33)", "value": "64 (29–189) percent of baseline"},
      {"measurement": "Recommended phase 2 dose", "setting": "[1]; human, in vivo, 21 day", "value": 45, "unit": "mg"},
      {"measurement": "Maximum tolerated dose (MTD)", "setting": "[1]; orally twice daily (BID), 21-day cycles, patients with advanced solid tumours", "value": 60, "unit": "mg"},
      {"measurement": "Best response of stable disease, patients", "setting": "advanced solid tumours", "value": 36, "unit": "%"},
      {"measurement": "Objective responses among patients with biliary cancer", "setting": "advanced solid tumours; 3 of 30 patients with biliary cancer", "value": 10, "unit": "%"},
      {"measurement": "Responses in patients with colorectal cancer", "setting": "advanced solid tumours; KRAS- or BRAF-mutant cohorts", "value": "no responses"},
      {"measurement": "Objective responses, number of patients", "setting": "advanced solid tumours; all in patients with biliary cancer", "value": "Three"},
      {"measurement": "Duration of complete response", "setting": "advanced solid tumours; biliary cancer", "value": 11.3, "unit": "months"},
      {"measurement": "Duration of partial response", "setting": "advanced solid tumours; biliary cancer, two patients", "value": "10.2 months and 17.9 months"},
      {"measurement": "Objective responses", "setting": "advanced solid tumours; of 91 patients evaluable for response", "value": 3, "unit": "%"},
      {"measurement": "Complete responses, number of patients", "setting": "advanced solid tumours; patients with biliary cancer", "value": "one"},
      {"measurement": "Partial responses, number of patients", "setting": "advanced solid tumours; patients with biliary cancer", "value": "two"},
      {"measurement": "Median duration of stable disease", "setting": "advanced solid tumours; range, 0.92–11.53 months", "value": 3.94, "unit": "months"}
    ]}
  ]
}
